Test results reported in patent US10098346B2, “Diphenyliodonium salts as sulfidogenesis inhibitors and antimicrobials” (Ecolab USA Inc., priority 2015, dated 2018).

Key:
Type in all cases: cell-based
[1] = system: sulfur reducing prokaryotes; assay: Next-generation DNA sequencing, relative abundance of each genus in treated samples; settings: 1 ppm, 305 days
[2] = as above; settings: DPIC 1 ppm - 305 Days
[3] = system: hydrogen sulfide production by sulfur utilizing prokaryote; assay: Hydrogen sulfide test kit (HACH, Model HS-C) in injection water aliquots; settings: injection water (synthetic seawater, produced water, lactate, thiosulfate); 0.1-100 ppm; up to 305 days
Experimental: (§1) A hydrogen sulfide test kit (HACH, Model HS-C) and an AccuCount test kit (available from Nalco Champion) were used to test the efficacy of diphenyliodonium chloride (DPIC) and diphenyliodonium nitrate (DPIN) in 100 mL aliquots of injection water collected by mixing synthetic seawater, produced water from an oil and gas production facility off-shore California, USA, lactate, and thiosulfate. The results of the testing of DPIC at 11 days, 84 days, and 305 days at concentrations of 0.1 ppm, 1 ppm, 10 ppm, and 100 ppm are shown in FIG. 2. The results of the testing of DPIC at 84 days and 305 days at concentrations of 0.1 ppm, 1 ppm, and 10 ppm are shown in FIG. 3. The results of the testing of DPIC and DPIN at 1 day, 7 days, and 14 days at concentrations of 0.1 ppm, 1 ppm, and 10 ppm in synthetic seawater are shown in the FIG. 4. The results of testing of DPIC and DPIN at 4 hours, 1 day, and 30 days at concentrations of 10 ppm and 100 ppm in 80% produced water, 50% produced water, and 20% produced water are shown in FIG. 5.

[4] = system: active microbes; assay: AccuCount test kit, level of active microbes in injection water aliquots; settings: injection water (synthetic seawater, produced water, lactate, thiosulfate); 0.1-100 ppm; up to 305 days
Experimental: as §1

Compound	sulfur reducing prokaryotes by DNA sequencing [1]	Relative Abundance, Acholeplasma sp. (APB) [2]	Relative Abundance, Citrobacter sp. (APB) [2]	Relative Abundance, Cryptanaerobacter sp. (APB) [2]	Relative Abundance, Kluyvera sp. (APB/GHB/NRB) [2]	Relative Abundance, Mangrovibacter sp. (NRB) [2]	Relative Abundance, Proteiniphilum sp. (APB) [2]	Relative Abundance, Pseudomonas sp. (NRB/GHB) [2]	Relative Abundance, Raoultella sp. (APB) [2]	Relative Abundance, Serratia sp. (NRB/GHB) [2]	Relative Abundance, Shimwellia sp. (APB) [2]	Relative Abundance, Sphaerochaeta sp. (APB) [2]	Relative Abundance, Thermovirga sp. (SRB) [2]	reducing the concentration hydrogen sulfide [3]	reducing the level of active microbes [4]
[Cl-].c1ccc([I+]c2ccccc2)cc1 [DPIC, diphenyliodonium chloride]	no detectable	0.2%	0.3%	0.1%	3.5%	0.2%	0.3%	0.5%	28.8%	59.3%	6.7%	0.2%	0.1%	effective	effective
O=[N+]([O-])[O-].c1ccc([I+]c2ccccc2)cc1 [DPIN, diphenyliodonium nitrate]														effective	effective
